Columns and labels:
HSP90 = conditions: 40 mg/kg i.v. single dose; 48-hours and 72-hours after administration
HSP70 = HSP70 level in tumor tissue by western blot analysis; assay type: in vivo, SCID mice bearing human breast cancer xenografts; conditions: 40 mg/kg i.v. single dose
p185 = p185 expression in xenografts by western blot analysis; assay type: in vivo, SCID mice bearing human breast cancer xenografts; conditions: 40 mg/kg i.v. single dose

Row | Compound | concentration in tumor tissue (mouse, in vivo, iv, 40 mg/kg) | time remaining detectable in tumor tissue after administration (mouse, in vivo, iv, 40 mg/kg) | concentration in normal tissues (single intravenous dose of 40 mg/kg, SCID mice, 7-hours post-administration, HPLC) | HSP90 concentration in tumor tissue of treated vs untreated mice (HSP90) | HSP70 concentration in tumor tissue of treated vs untreated mice (HSP70; 4-hours and 7-hours after administration) | HSP70 concentration in tumor tissue of treated vs untreated mice (HSP70; 48-hours and 72-hours after administration) | increase of p185 expression in xenografts over untreated mice (p185; 2-hours after administration) | p185 expression in xenografts below control levels (p185; 7-hours, 24-hours and 48-hours after administration)
1 | CO[C@H]1C=C/C=C(\C)C(=O)NC2=CC(=O)C(N)=C(C[C@@H](C)C[C@H](OC)[C@H](O)[C@@H](C)/C=C(\C)[C@@H]1OC(N)=O)C2=O (stereo in doubt) [Example 17-AG] | 0.5 to 1 µg/g | more than 48 hours |  |  |  |  |  | 
2 | C=CCNC1=C2C[C@@H](C)C[C@H](OC)[C@H](O)[C@@H](C)/C=C(\C)[C@H](OC(N)=O)[C@@H](OC)/C=C\C=C(/C)C(=O)NC(=CC1=O)C2=O [Example 17-AAG, 17-allylaminogeldanamycin] |  |  | below detection levels | elevated | lower | elevated | 2 fold | 30%

Source: patent US6838090B2, “Water-insoluble drug delivery system” (priority 1998, dated 2005)
